Literature values as cited in patent publication US7388019B2, “3-amino-4-phenylbutanoic acid derivatives as dipeptidyl peptidase inhibitors for the treatment or prevention of diabetes” (Merck & Co., Inc., priority 2003, dated 2008).

How the values were obtained:
[1] = mouse, cyclophosphamide-induced neutropenia
[2] = rats
[3] = target: T1, DP-IV (Homo sapiens, UniProt P27487); settings: plasma
T1 construct: GRF is rapidly degraded in plasma to GRF[3-44]; from tissue
T1 sequence (P27487 39-766 limits assumed): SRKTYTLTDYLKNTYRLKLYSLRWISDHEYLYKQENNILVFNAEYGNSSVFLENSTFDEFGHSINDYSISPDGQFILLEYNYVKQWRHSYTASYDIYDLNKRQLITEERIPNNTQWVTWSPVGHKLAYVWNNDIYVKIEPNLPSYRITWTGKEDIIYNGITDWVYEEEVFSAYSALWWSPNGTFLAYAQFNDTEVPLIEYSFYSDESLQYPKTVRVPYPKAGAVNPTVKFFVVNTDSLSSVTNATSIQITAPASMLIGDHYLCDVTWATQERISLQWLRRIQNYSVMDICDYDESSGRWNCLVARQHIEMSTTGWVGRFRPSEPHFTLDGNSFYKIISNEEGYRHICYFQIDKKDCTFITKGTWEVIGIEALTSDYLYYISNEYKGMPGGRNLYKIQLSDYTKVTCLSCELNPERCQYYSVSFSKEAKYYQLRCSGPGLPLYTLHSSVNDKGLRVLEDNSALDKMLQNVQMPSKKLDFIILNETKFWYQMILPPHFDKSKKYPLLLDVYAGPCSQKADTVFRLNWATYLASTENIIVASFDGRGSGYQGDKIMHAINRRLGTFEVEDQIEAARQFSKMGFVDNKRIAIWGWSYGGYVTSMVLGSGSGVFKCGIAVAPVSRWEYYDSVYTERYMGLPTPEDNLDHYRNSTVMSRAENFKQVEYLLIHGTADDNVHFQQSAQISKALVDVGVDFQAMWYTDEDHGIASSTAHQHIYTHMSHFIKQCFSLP

CC(C)[C@H](N)C(=O)N1CCC[C@H]1B(O)O [Val-Boro-Pro]
hematopoiesis [1]: stimulated hematopoiesis

CC(C)N1CCC(c2ccccc2)(c2ccccc2)CC1 [Prodipine, Pro-Pro-diphenyl-phosphonate]
cardiac allograft survival [2]: double cardiac allograft survival in rats from day 7 to day 14

diprotin A
degradation of GRF to GRF[3-44] [3]: prevented
